Laboratory results: patent publication US5770611A, “Indole derivatives as 5HT1 -like agonists” (Pfizer Inc., priority 1994, dated 1998)

Key:
[1] = molecular target: T1, "5-HT1 -like" receptor (dog isolated saphenous vein strip) (Canis lupus familiaris, UniProt P79250); assay: contraction of isolated dog saphenous vein strip ("5-HT1 -like" receptor agonist activity); assay type: cell-based; conditions: for EC50: concentration causing 50% of the maximum contraction effected by the compound; for RELATIVE POTENCY EC50 (compound)/EC50 (5-HT): ratio to 5-HT (higher = less potent)
T1 construct: on dog isolated saphenous vein strip; from tissue; host or cells: dog isolated saphenous vein strip
Text: The following Table illustrates the in vitro activities for a range of the compounds of the invention on dog isolated saphenous vein strip. EC50 represents the concentration of compound which causes 50% of the maximum contraction effected by it.

[2] = molecular target: T1, "5-HT1 -like" receptor (dog isolated saphenous vein strip); conditions: antagonism of the agonist-induced contraction; cited from earlier work

T1 sequence (P79250 whole entry): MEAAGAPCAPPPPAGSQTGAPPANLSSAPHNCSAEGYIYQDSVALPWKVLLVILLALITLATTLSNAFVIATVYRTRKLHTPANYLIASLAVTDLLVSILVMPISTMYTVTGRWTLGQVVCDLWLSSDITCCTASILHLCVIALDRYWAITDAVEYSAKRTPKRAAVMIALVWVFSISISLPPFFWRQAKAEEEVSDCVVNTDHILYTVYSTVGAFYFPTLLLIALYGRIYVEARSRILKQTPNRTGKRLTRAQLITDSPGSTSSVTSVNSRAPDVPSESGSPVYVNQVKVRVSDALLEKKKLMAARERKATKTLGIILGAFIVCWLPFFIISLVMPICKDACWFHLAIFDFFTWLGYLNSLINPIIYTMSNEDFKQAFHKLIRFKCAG

EC50 [1] [nM]	RELATIVE POTENCY EC50 (compound)/EC50 (5-HT) [1]	SMILES	block of contraction of dog saphenous vein strip [2]
3000	71	CC(C)(O)CCc1ccc2[nH]cc(C[C@H]3CCCN3CC3CCCNC3=O)c2c1 (single isomer, unassigned) [Example 9A]	–
1800	78	CC(C)(O)CCc1ccc2[nH]cc(C[C@H]3CCCN3CC3CCCNC3=O)c2c1 (single isomer, unassigned) [Example 9B]	–

The next lines start with the molecule.

SMILES	EC50 [1] [nM]	RELATIVE POTENCY EC50 (compound)/EC50 (5-HT) [1]	block of contraction of dog saphenous vein strip [2]
CC(C)(O)CCc1ccc2[nH]cc(C[C@H]3CCCN3CC3CCN(Cc4ccccc4)C3)c2c1 (stereo partly drawn) [Example 1]	620	11.0	–
CC(C)(O)CCc1ccc2[nH]cc(C[C@H]3CCCN3C[C@H]3CCCN3S(C)(=O)=O)c2c1 [Example 5, 5-(3-Hydroxy-3-methyl-1-butyl)-3-[N-(N-methane-sulphonyl-2(R)-pyrrolidinylmethyl)-2(R)-pyrrolidinylmethyl]-1H-indole]	180	2.4	–
CSc1ccc2c(c1)C(N1CCN(C)CC1)Cc1ccccc1S2 (stereo not drawn) [methiothepin]	–	–	This effect can be blocked by methiothepin
